Among the data in US12172975B2, “1H-indazole carboxamides as receptor-interacting protein kinase 1 inhibitors (RIPK1)” (BRISTOL-MYERS SQUIBB COMPANY, priority 2018, dated 2024) are IC50 values, retold here.

Assay [1] deals with His-GST-TVMV-hRIPK1 (1-324) (Homo sapiens (Human), UniProt Q13546). The experiment in a line: RIPK1 HTRF Binding Assay. To be noted: read-out: RIPK1 HTRF (IC50); FRET probe displacement, 1 h at rt. Background: In TR-FRET formats the signal depends on donor and acceptor labels being close together.
Assay [2] has as its system MLKL phosphorylation in HT29-L23 human colorectal adenocarcinoma cells. Nature of the assay: MLKL Phosphorylation High-Content Assay. Particulars: 6 h, necroptosis induced with TNFα, SMAC mimetic and Z-VAD, read-out: pMLKL (IC50). In kind it is cell-based. The method in brief: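 HT29-L23 cells were induced to necroptosis with TNFα (35 ng/mL), SMAC mimetic (700 nM) and Z-VAD (140 nM) for 6 h at 37 °C. Phospho-MLKL (S358) immunofluorescence was imaged and quantified per cell; maximal inhibition set by Nec-1s (6.25 μM), and IC50/Ymax from 4-parameter logistic fit.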

The structures appear in SMILES notation. Counter-ions that a name gives are not always drawn. Like-named read-outs stand apart in the source and are kept apart here.

Sequence of His-GST-TVMV-hRIPK1 (1-324) (Q13546 1-324): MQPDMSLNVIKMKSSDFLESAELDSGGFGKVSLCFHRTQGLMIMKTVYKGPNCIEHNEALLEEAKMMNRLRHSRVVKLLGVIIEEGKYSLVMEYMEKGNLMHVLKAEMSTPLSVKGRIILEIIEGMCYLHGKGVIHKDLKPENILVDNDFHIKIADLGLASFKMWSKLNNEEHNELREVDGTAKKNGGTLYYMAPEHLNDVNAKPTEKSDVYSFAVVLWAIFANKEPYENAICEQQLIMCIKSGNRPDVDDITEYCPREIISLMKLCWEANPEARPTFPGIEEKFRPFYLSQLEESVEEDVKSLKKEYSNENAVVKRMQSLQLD

As for `CNC(=O)c1n[nH]c2cc(-c3cnc(OC)c(C(=O)NCc4cc(F)cc(F)c4OC(C)C)c3)ccc12` [Example 126, 6-[5-({[3,5-difluoro-2-(propan-2-yloxy)phenyl]methyl}-carbamoyl)-6-methoxypyridin-3-yl]-N-methyl-1H-indazole-3-carboxamide], the IC50 – broadly, the point on the concentration scale where inhibition reaches its midpoint – is 4.2 nM in assay [1] and 6.9 nM in assay [2] (Homo sapiens).

Regarding `CNC(=O)c1n[nH]c2cc(-c3cnc(OC)c(C(=O)NCc4c(F)cccc4OC(C)C)c3)ccc12` [Example 127, 6-[5-({[2-fluoro-6-(propan-2-yloxy)phenyl]methyl}-carbamoyl)-6-methoxy-pyridin-3-yl]-N-methyl-1H-indazole-3-carboxamide], the 50% inhibitory concentration (IC50) was 2.3 nM in assay [1] and 3.7 nM in assay [2] (Homo sapiens).

With `CNC(=O)c1n[nH]c2cc(-c3cnc(OC)c(C(=O)NCc4cc(F)cc(F)c4OCC4CC4)c3)ccc12` [Example 128, 6-[5-({[2-(cyclopropylmeth-oxy)-3,5-difluorophenyl]-methyl}carbamoyl)-6-meth-oxypyridin-3-yl]-N-methyl-1H-indazole-3-carboxamide], the half-maximal inhibitory concentration (IC50) in assay [1] worked out at 2.3 nM; in assay [2] (Homo sapiens), 3.1 nM.

As for `CNC(=O)c1n[nH]c2cc(-c3cnc(OC)c(C(=O)NCc4cc(F)ccc4OC(C)C)c3)ccc12` [Example 130, 6-[5-({[5-fluoro-2-(propan-2-yloxy)phenyl]methyl}carbam-oyl)-6-methoxy-pyridin-3-yl]-N-methyl-1H-indazole-3-carboxamide], the results for the IC50 in assay [1] and in assay [2] were 1.9 nM and 3.9 nM, respectively.

As to `CNC(=O)c1n[nH]c2cc(-c3cnc(OC)c(C(=O)NCc4ccccc4OC4CCC(C)C4)c3)ccc12` (stereo not shown) [Example 131, 6-{6-methoxy-5-[({2-[(3-methylcyclopentyl)oxy]-phenyl}methyl)carbamoyl]-pyridin-3-yl}-N-methyl-1H-indazole-3-carboxamide], the concentration for half-maximal inhibition (IC50) worked out at 10 nM in assay [1] and 2.3 nM in assay [2] (Homo sapiens).

Take `CNC(=O)c1n[nH]c2cc(-c3cnc(OC)c(C(=O)NC4CCCC(C(=O)N5CC(F)(F)C5)C4)c3)ccc12` (stereo not shown) [Example 132, 6-(5-{[3-(3,3-difluoroazet-idine-1-carbonyl)cyclohexyl]-carbamoyl}-6-methoxypyridin-3-yl)-N-methyl-1H-indazole-3-carboxamide, TFA]: the concentration for half-maximal inhibition (IC50) in assay [1] was 35 nM; in assay [2], 140 nM.

Take `CNC(=O)c1n[nH]c2cc(-c3cnc(OC)c(C(=O)N4CCC[C@@H](Cc5ccc(F)cc5)C4)c3)ccc12` [Example 134, 6-{5-[(3S)-3-[(4-fluorophenyl)-methyl]piperidine-1-carbonyl]-6-methoxy-pyridin-3-yl}-N-methyl-1H-indazole-3-carbox-amide, TFA]: the IC50 worked out at 17 nM in assay [1] and 7.3 nM in assay [2].

Consider `CNC(=O)c1n[nH]c2cc(-c3cnc(OC)c(C(=O)NCc4cc(OC(F)(F)F)ccc4F)c3)ccc12` [Example 137], for which the results for the concentration for half-maximal inhibition (IC50) in assay [1] and in assay [2] were 1.6 nM and 2.9 nM, respectively.

With `CNC(=O)c1n[nH]c2cc(-c3cnc(OC)c(C(=O)NCC4CCCCC4)c3)ccc12` [Example 138, 6-{5-[(cyclohexylmethyl)-carbamoyl]-6-methoxy-pyridin-3-yl}-N-methyl-1H-indazole-3-carboxamide], the half-inhibitory concentration (IC50) in assay [1] turned out to be 12 nM; in assay [2] (Homo sapiens), 89 nM.

Regarding `CNC(=O)c1n[nH]c2cc(-c3cnc(OC)c(C(=O)NCC4(C(=O)OC5CCCC5)CC4)c3)ccc12` [Example 140, cyclopentyl 1-[({2-methoxy-5-[3-(methylcarbamoyl)-1H-indazol-6-yl]pyridin-3-yl}-formamido)methyl]cyclopro-pane-1-carboxylate], the figures for the IC50 in assay [1] and in assay [2] were 6.9 nM and 18 nM, respectively.

For `CNC(=O)c1n[nH]c2cc(-c3cnc(OC)c(C(=O)NCc4cc(C(F)(F)F)ccn4)c3)ccc12` [Example 143, 6-[6-methoxy-5-({[4-(trifluoro-methyl)pyridin-2-yl]methyl}-carbamoyl)pyridin-3-yl]-N-methyl-1H-indazole-3-carboxamide], the results for the IC50 in assay [1] and in assay [2] (Homo sapiens) were 28 nM and 26 nM, respectively.
